Source: patent US20160030407A1, “Method of Treating Inflammatory Lung Disease” (priority 2010, published 2016)

How the values were obtained:
[1] = Single i.v. dose toxicity: urinalysis; type: in vivo, Sprague-Dawley rats; settings: rat; day 15 after single i.v. dose
Description: On day 15, urine was collected on all surviving animals for urinalysis. The animals were euthanized and bled via cardiac puncture. Blood was collected for hematology, clinical chemistry, and coagulation analysis. Tissues were collected, weighed, and stored in 10% neutral-buffered formalin for possible future analysis.

nAChR α3/β4 = nAChR α3/β4 (Homo sapiens, UniProt P30926+P32297); experiment: cell-based; settings: read-out: Normalized % Inhibition
Sequence of nAChR α3/β4 (P32297 32-505): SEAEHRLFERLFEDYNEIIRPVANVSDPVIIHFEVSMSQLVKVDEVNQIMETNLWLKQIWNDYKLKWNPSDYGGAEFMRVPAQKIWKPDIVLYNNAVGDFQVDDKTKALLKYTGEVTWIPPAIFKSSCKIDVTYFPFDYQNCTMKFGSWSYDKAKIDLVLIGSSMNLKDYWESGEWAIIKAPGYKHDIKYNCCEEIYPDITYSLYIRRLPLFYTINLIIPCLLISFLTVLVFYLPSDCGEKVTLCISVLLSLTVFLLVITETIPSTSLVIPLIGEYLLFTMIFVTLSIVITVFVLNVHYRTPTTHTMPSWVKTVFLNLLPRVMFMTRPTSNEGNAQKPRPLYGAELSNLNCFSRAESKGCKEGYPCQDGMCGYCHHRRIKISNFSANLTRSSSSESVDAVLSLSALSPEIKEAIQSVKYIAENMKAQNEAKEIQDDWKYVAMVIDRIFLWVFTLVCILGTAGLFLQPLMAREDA
Sequence of nAChR α3/β4 (P30926 22-498): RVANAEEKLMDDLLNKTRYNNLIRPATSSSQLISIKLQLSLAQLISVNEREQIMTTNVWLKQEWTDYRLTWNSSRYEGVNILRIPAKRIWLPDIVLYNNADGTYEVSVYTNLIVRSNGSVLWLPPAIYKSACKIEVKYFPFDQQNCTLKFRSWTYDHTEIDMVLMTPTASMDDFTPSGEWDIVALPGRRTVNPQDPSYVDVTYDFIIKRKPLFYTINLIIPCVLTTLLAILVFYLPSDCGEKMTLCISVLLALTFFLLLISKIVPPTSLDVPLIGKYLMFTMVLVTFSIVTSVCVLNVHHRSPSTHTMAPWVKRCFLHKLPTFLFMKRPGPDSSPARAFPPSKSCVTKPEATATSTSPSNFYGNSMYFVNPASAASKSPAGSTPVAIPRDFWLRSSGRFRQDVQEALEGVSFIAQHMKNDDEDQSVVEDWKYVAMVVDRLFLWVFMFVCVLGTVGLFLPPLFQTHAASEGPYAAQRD
Experimental: Briefly, cells were incubated with […] dye for 30 min at 37° C.

[2] = Single i.v. dose toxicity, 14-day observation: general observations and mortality (incl. nicotine tolerability study); type: in vivo, Sprague-Dawley rats
Experimental: (§1) Body weight and food consumption was measured daily for 14 days. On day 15, urine was collected on all surviving animals. The animals were euthanized and bled via cardiac puncture, and blood was collected for analysis. Tissues were collected, weighed, evaluated for gross abnormalities, and stored in 10% neutral-buffered formalin.
The animals were weighed prior to dosing and received a single i.v. dose via the lateral tail vein of either test compound or vehicle at a volume of 5 mL/kg.
(§2) All animals were observed daily.

[3] = Single i.v. dose toxicity: body weights and food consumption; type: in vivo, Sprague-Dawley rats; settings: for Average Daily Food Consumption per Rat: Nicotine 0.75 mg/kg; for Mean weight increase by day 14: single i.v. 0.75 mg/kg nicotine
Experimental: as §1, §2

With `CN1CCCC1c1cccnc1.O=C(O)C(O)C(O)C(=O)O` (single isomer, unassigned; (-)) [Nicotine, (−) Nicotine hydrogen tartrate, reference compound] the “urinalysis parameters vs controls” value [1] was “no notable differences in any of the urinalysis parameters”, the inhibition at 0.3 µM (nAChR α3/β4) was 19.1% and the inhibition at 1 µM (nAChR α3/β4) was 19%. The inhibition at 10 µM (nAChR α3/β4) was 95.8%, the inhibition at 30 µM (nAChR α3/β4) was 139% and the inhibition at 100 µM (nAChR α3/β4) was 145%. For the same molecule, the inhibition at 300 µM (nAChR α3/β4) was 144%, the inhibition at 1000 µM (nAChR α3/β4) was 142% and the “time until return to normal, tolerability study” value ([2]; female rats, nicotine 1.25 and 1.0 mg/kg i.v., post dose) was no more than 20 min. The “observations after dosing, tolerability study” value ([2]; female rats, single i.v. nicotine 1.25 mg/kg (1) and 1.0 mg/kg (3)) was “experienced severe tremors upon completion of dosing”, the “time until return to normal” value ([2]; rat, nicotine 0.75 mg/kg i.v., post dose) was 15 to 20 min and the observations after dosing ([2]; rat, single i.v. 0.75 mg/kg nicotine) was “experienced tremors upon compound administration”. For the same molecule, the mortality ([2]; rat, single i.v. 0.75 mg/kg nicotine (5 males, 5 females)) was “One male and two females died post dose”, the “Average Daily Food Consumption per Rat” value ([3]; Female, day 6, cages 1 and 2, tartrate) was 20.0 grams and the “Average Daily Food Consumption per Rat” value ([3]; Males, day 8, cages 1 and 2, tartrate) was 24.0 grams. The “day 13 B.W.” value ([3]; individual male rats, single i.v. 0.75 mg/kg, tartrate, 0.75 mg/kg) was 330 g, the “B.W. day 6” value ([3]; nicotine 0.75 mg/kg single i.v. dose, day 6, male rats (individual animals), tartrate) was 270 g and the “Mean weight increase by day 14” value ([3]; female rats) was 40.8 g. For the same molecule, the “Mean weight increase by day 14” value ([3]; male rats, listed as nicotine, tartrate, 0.75 mg/kg) was “significantly lower than the controls” and the “Mean weight increase by day 14” value ([3]; male rats, tartrate, 0.75 mg/kg) was 98.5 g.
